The source of these data is patent US6566048B1, “Acetyl-COA-carboxylase from Candida albicans” (Syngenta Limited, priority 1997, dated 2003).

The subject of one test is C. albicans B2630. The experiment in a line: In-vitro antifungal activity, broth-dilution liquid MIC. The class given is cell-based. The following applies: Candida albicans, 30° C., 48h, MIC determined visually, read-out: Liquid MIC (μg/ml) for Soraphen A. How it is done: (§1) Compounds were tested over a concentration range of 1024-0.00098 μg/ml by a broth-dilution method in microtitre plates using doubling dilutions in YPD or YPGal (both containing 500 μg/l d-biotin). Stock solutions of inhibitors were prepared at 51.2 mg/ml in Dimethyl sulphoxide (DMSO) (final assay concentration of DMSO was 2% v/v). Each Yeast culture was added to the well to give a final 10^4 cfu/well. The plates were incubated at 30° C. for 48h and MIC's determined visually.

A further test relates to S. cerevisiae CLS2-13. The test is described as above. The class given is cell-based. The following applies: Saccharomyces cerevisiae, CLS213, 30° C., 48h, MIC determined visually, read-out: Liquid MIC (μg/ml) for Soraphen A. How it is done: as §1
The subject of another test is S. cerevisiae Mey 134. The description is as above. To be noted: Saccharomyces cerevisiae, MEY134, 30° C., 48h, MIC determined visually, read-out: Liquid MIC (μg/ml) for Soraphen A. The class given is cell-based. On the procedure: as §1
The subject of test [1] is S. cerevisiae PNS 117a 5C. The description is as above. The class given is cell-based. To be noted: Saccharomyces cerevisiae, PNS117A5C, 30° C., 48h, MIC determined visually, read-out: Liquid MIC (μg/ml) for Soraphen A. On the procedure:
as §1

In test [2] the test system is S. cerevisiae PNS 117b 6A. The test is described as above. The class given is cell-based. The following applies: Saccharomyces cerevisiae, PNS117B6A, 30° C., 48h, MIC determined visually, read-out: Liquid MIC (μg/ml) for Soraphen A. How it is done:
as §1

For test [3], the system named is S. cerevisiae PNS 120a 6C. The description is as above. The following applies: Saccharomyces cerevisiae, PNS120A6C, 30° C., 48h, MIC determined visually, read-out: Liquid MIC (μg/ml) for Soraphen A. The class given is cell-based. On the procedure: as §1
The test system of test [4] is S. cerevisiae PNS 120b 1C. The description is as above. The following applies: Saccharomyces cerevisiae, PNS120B1C, 30° C., 48h, MIC determined visually, read-out: Liquid MIC (μg/ml) for Soraphen A. The class given is cell-based. On the procedure:
as §1

Test [5] concerns the target ACCase preparation from S. cerevisiae CLS2-13 (C. albicans ACC1 gene in Yep24) (Candida albicans, UniProt A0A1D8PRR7). The test is described as follows: In-vitro ACCase assay ([14C] NaHCO3 incorporation). The class given is biochemical. To be noted: 37° C., 5 minutes, read-out: IC50 for Soraphen A (nM) against ACCase preparations. On the procedure: (§2) Cultures of the appropriate yeast strains were grown to the exponential phase of growth (for Saccharomyces and Candida strains respectively). These were then harvested by centrifugation (4400 g, 10 min, 4° C.), washed twice in 700 ml of 50 mM Tris pH7.5 containing 20% w/v gylcerol, resuspending the cell pellet each time. […] The volume of buffer required was dependent on the total packed cell wet weight. (i.e. 1 ml buffer added per 6 gm of packed wet cell pellet).
(§3) The cell paste was homogenised using a pre-cooled Bead-Beater (Biospec Products, Bartlesville, Okla. 74005) with 4×10 second Bursts, allowing 20 second intervals on ice. The preparation was then centrifuged at 31,180 g for 30 minutes. After centrifugation the supernatant was immediately decanted into a container, then aliquoted before snap freezing in liquid nitrogen.

Test [6] concerns the target ACCase preparation from S. cerevisiae PNS 117a 5C (Candida albicans, UniProt A0A1D8PRR7). The experiment in a line: In-vitro ACCase assay ([14C] NaHCO3 incorporation). The class given is biochemical. The following applies: 37° C., 5 minutes, read-out: IC50 for Soraphen A (nM) against ACCase preparations. How it is done: as §2, §3
Test [7] has as its target ACCase preparation from S. cerevisiae PNS 117b 6A (Candida albicans, UniProt A0A1D8PRR7). The test is described as follows: In-vitro ACCase assay ([14C] NaHCO3 incorporation). The class given is biochemical, C. albicans. The following applies: 37° C., 5 minutes, read-out: IC50 for Soraphen A (nM) against ACCase preparations. On the procedure:
as §2, §3

The next test deals with C. albicans ACC1. The following applies: isolated fully functional C. albicans ACC1.

≈ marks a conversion by molar mass, not a printed value.

Sequence of ACCase preparation from S. cerevisiae CLS2-13 (C. albicans ACC1 gene in Yep24) (A0A1D8PRR7 entry or part of it): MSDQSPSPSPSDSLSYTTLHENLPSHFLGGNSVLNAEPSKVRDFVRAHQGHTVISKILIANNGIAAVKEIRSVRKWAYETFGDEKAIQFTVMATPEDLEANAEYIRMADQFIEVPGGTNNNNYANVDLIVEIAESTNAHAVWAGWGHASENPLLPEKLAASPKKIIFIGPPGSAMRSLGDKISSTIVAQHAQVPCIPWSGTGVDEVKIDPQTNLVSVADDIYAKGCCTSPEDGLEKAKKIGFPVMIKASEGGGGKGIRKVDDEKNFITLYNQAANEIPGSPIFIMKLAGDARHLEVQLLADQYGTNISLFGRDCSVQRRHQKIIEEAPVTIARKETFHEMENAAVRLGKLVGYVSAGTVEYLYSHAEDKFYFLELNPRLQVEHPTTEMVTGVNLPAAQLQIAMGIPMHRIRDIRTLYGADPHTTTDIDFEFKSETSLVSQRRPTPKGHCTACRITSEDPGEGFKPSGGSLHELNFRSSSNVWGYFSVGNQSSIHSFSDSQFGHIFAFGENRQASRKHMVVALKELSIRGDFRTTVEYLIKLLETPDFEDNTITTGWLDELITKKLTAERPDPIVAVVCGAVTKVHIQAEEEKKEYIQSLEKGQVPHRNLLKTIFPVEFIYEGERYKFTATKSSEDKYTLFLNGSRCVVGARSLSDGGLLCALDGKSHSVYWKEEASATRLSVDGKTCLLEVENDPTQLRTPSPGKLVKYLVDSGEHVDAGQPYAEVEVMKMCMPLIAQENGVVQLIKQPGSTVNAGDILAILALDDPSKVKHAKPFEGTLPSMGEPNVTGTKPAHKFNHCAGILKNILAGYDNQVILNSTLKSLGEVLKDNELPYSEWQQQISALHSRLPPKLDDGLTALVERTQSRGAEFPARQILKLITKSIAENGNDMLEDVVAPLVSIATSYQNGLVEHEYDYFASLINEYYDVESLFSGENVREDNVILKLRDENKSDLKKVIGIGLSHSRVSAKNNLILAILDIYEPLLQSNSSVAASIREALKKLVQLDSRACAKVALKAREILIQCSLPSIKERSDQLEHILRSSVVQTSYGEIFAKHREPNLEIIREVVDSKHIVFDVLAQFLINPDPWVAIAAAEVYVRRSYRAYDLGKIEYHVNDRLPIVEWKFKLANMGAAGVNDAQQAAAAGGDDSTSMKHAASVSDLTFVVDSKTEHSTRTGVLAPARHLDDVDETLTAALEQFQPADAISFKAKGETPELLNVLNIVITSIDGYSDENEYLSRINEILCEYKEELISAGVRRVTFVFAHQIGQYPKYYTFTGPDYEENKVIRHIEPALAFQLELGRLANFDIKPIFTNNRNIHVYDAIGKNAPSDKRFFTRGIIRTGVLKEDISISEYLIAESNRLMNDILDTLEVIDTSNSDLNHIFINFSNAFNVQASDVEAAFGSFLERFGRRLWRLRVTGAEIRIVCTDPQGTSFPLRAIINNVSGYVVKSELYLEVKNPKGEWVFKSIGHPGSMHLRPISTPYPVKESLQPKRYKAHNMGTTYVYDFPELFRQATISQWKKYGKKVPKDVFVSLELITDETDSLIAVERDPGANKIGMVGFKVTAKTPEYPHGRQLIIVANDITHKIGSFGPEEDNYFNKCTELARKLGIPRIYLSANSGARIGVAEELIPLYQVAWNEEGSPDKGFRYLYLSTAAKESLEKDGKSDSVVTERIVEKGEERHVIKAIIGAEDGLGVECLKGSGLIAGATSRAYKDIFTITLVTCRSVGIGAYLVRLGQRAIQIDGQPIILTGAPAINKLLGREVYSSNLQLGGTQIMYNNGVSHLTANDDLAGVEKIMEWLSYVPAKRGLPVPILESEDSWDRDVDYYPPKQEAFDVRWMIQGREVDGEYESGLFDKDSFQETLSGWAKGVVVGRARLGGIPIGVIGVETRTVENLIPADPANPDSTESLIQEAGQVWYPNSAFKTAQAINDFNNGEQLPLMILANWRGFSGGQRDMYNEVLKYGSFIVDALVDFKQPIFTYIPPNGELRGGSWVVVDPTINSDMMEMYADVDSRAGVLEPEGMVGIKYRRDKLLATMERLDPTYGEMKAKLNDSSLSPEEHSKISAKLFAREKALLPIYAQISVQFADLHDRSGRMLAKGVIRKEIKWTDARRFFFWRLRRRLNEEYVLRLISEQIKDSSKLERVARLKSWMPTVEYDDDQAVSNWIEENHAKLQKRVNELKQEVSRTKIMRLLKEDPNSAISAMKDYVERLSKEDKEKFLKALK
Sequence of ACCase preparation from S. cerevisiae PNS 117b 6A (A0A1D8PRR7 entry or part of it): as above

Turning to `CO[C@H]1CCCC[C@@H](c2ccccc2)OC(=O)[C@@H](C)[C@@]2(O)O[C@H]([C@@H](C)[C@H](O)[C@H]2OC)[C@@H](C)/C=C/[C@H]1OC` [Soraphen A], the MIC in the test on C. albicans B2630 is 0.003 µg/mL (≈ 0.00576 µM); in the test with S. cerevisiae CLS2-13, 2 µg/mL (≈ 3.84 µM); in the test on S. cerevisiae Mey 134, 8 µg/mL (≈ 15.4 µM); in [1], 2 µg/mL (≈ 3.84 µM); in test [2], 4 µg/mL (≈ 7.68 µM); in [3], 0.5 µg/mL (≈ 0.96 µM). In [4], the MIC is 0.125 µg/mL (≈ 0.24 µM). Further, the IC50 worked out at 2.5 nM in [5], 17.5 nM in test [6] and 13.1 nM in [7]. Besides, the “inhibition by SoraphenA” value with C. albicans ACC1 is reported as 100%.
